Reference: US7491796B1, “Retro-inversion peptides that target GIT receptors and related methods” (Merrion Research III Limited, priority 1998, dated 2009)
Where no end group is shown, it is not given here. The star is where a group is joined. Dansyl = CN(C)c1cccc2c(S(=O)(=O)*)cccc12

Tested on: Caco-2 cell membrane (P100) fractions
Assay: Binding of dansylated peptides to Caco-2 cell membrane (P100) fractions by ELISA
Settings: for Kd: Caco-2 P100 fractions, ELISA, read-out: KD (concentration of the peptide required to reach half maximal binding to Caco-2 P100 fractions); for Binding to P100 relative to ZElan021 (arbitrary value 1.00), P100 assay number 7: assay 7; for Binding to P100 relative to ZElan021 (arbitrary value 1.00), P100 assay number 7 / Binding to P100 relative to ZElan021 (arbitrary value 1.00), P100 assay number 8 / Binding to P100 relative to ZElan021 (arbitrary value 1.00), P100 assay number 4 / Binding to P100 relative to ZElan021 (arbitrary value 1.00), P100 assay number 5 / Binding to P100 relative to ZElan021 (arbitrary value 1.00), P100 assay number 6: peptide at 25 μg/ml; for Binding to P100 relative to ZElan021 (arbitrary value 1.00), P100 assay number 8: assay 8; for Binding to P100 relative to ZElan021 (arbitrary value 1.00), P100 assay number 4: assay 4; for Binding to P100 relative to ZElan021 (arbitrary value 1.00), P100 assay number 5: assay 5; for Binding to P100 relative to ZElan021 (arbitrary value 1.00), P100 assay number 6: assay 6
Protocol: Similar to the methods described in the above-referenced WO 98/51325, Caco-2 cell membrane (P100) and cytosolic (S100) fractions were prepared using a modification of the method described in Kinsella, B. T., O'Mahony, D. J. and G. A. FitzGerald, 1994, J. Biol. Chem. 269(47): 29914-29919. Confluent Caco-2 cell monolayers (grown in 75 cm^2 flasks for up to 1 week at 37° C. and 5% CO2) were washed twice in Dulbecco's PBS (DPBS) and the cells were harvested by centrifugation at 1000 rpm after treatment with 10 mM EDTA-DPBS. The cells were washed 3 times in DPBS and the final cell pellet was resuspended in 3 volumes of ice cold HED buffer (20 mM HEPES (pH 7.67), 1 mM EGTA, 0.5 mM dithiothreitol, 1 mM phenylmethylsulphonyl fluoride (PMSF)). The cells were allowed to swell for 5 min on ice prior to homogenization for 30 sec. The homogenates were centrifuged at 40,000 rpm for 45 min at 4° C. The supernatant (S100) was removed and the pellet (P100) was resuspended in HEDG buffer (20 mM HEPES (pH 7.67), 1 mM EGTA, 0.5 mM dithiothreitol, 100 mM NaCl, 10% glycerol, 1 mM PMSF). Protein concentrations were determined using the Bradford assay (Bradford, M. M., 1976, Anal. Biochem. 72: 248-254).
Binding of peptides to membrane (P100) was assessed by detection of the dansyl moiety incorporated in the peptide. Costar ninety six well ELISA plates were coated with P100 fractions (100 μg/ml in 0.05 M NaHCO3 (pH 9.6); 100 μl/well) overnight at 4° C. The plates were blocked with 2% Marvel-DPBS for 1 h at room temperature and washed 3 times in 1% DPBS-Tween. Peptides (200 μg/ml in 2% Marvel-DPBS) were serially diluted on the plates and incubated for 1 h at room temperature. The plates were washed 5 times and the dansylated peptides were detected using i) mouse anti-dansyl antiserum (Cytogen DB3-226.3; 1:1340 dilution in 2% Marvel-DPBS) or ii) rabbit anti-dansyl antiserum (La Jolla Diagnostics LAJD-119; 1:1000 dilutions) for 1 h at room temperature. The plates were washed 3 times prior to incubation with i) goat anti-mouse IgGλ:HRP antibody (Southern Biotechnology 1060-05; 1:10,000 dilution in 2% Marvel-DPBS) or ii) anti-rabbit IgG HRP (Sigma A-0545, 1:8,000) for 1 h at room temperature. After 3 washes, reactions were visualized using K Blue Substrate and Red Stop Solution (Neogen Co. 300176 & 301475, respectively) at 650 nm.
ZElan021, full length HAX42 [K(dns)-[…]] (SEQ ID NO:53; dansylated version is SEQ ID NO:8) was given the arbitrary value of 1.00 for binding to P100 at a given peptide concentration determined from the signal-to-noise ratio data. […] Assay number 1 was at 20 μg/ml; 2 and 3 were at 50 μg/ml; and 4 through 8 were at 25 μg/ml.
KD values, or the concentration of the peptide required to reach half maximal binding to Caco-2 P100 fractions, are given in Table 3 for ZElan021, full length HAX42, [K(dns)-[…]] (SEQ ID NO:53; dansylated version is SEQ ID NO:8), HAX42 fragment ZElan091, and the retro-inverted form of this fragment, ZElan146 as well as for ZElan018, full length PAX2, [K(dns)-STPPSREAYSRPYSVDS […]] (SEQ ID NO:7; dansylated version is SEQ ID NO:15), PAX2 fragment ZElan129, and the retro-inverted form of this fragment, ZELan144.

Row | Substance | Kd [µM] | Binding to P100 relative to ZElan021 (arbitrary value 1.00), P100 assay number 7 | Binding to P100 relative to ZElan021 (arbitrary value 1.00), P100 assay number 8 | Binding to P100 relative to ZElan021 (arbitrary value 1.00), P100 assay number 1 (assay 1, peptide at 20 μg/ml) | Binding to P100 relative to ZElan021 (arbitrary value 1.00), P100 assay number 2 (assay 2, peptide at 50 μg/ml) | Binding to P100 relative to ZElan021 (arbitrary value 1.00), P100 assay number 3 (assay 3, peptide at 50 μg/ml) | Binding to P100 relative to ZElan021 (arbitrary value 1.00), P100 assay number 4 | Binding to P100 relative to ZElan021 (arbitrary value 1.00), P100 assay number 5 | Binding to P100 relative to ZElan021 (arbitrary value 1.00), P100 assay number 6
1 | K(dns)-gtsngngccnydgp [ZElan146] | 21.7 | 0.36 | 0.72 | – | – | – | – | – | –
2 | K(dns)-TNAKHSSHNRRLRTR (K(Dansyl)TNAKHSSHNRRLRTR) [ZElan129, dansylated PAX2 15 mer fragment] | 29.6 | – | – | – | – | – | – | – | –
3 | K(dns)-SDHALGTNLRSDNAKEPGDYNCCGNGNSTGRKVFNRRRPSAIPT (K(Dansyl)SDHALGTNLRSDNAKEPGDYNCCGNGNSTGRKVFNRRRPSAIPT; cysteine pairing not given here) [ZElan021, dansylated full length HAX42] | 6.7 | 1.14 | 0.94 | 1.00 | 1.00 | 1.00 | 1.00 | 1.00 | 1.00
4 | K(dns)-PGDYNCCGNGNSTG [ZElan091] | 0.75 | 0.85 | – | – | – | – | 2.02 | 1.37 | 1.20
5 | K(dns)-rtrlrrnhsshkant [ZElan144] | 28.8 | – | – | – | – | – | – | – | –
6 | K(dns)-STPPSREAYSRPYSVDS DSDTNAKHSSHNRRLRTRSRPNG (K(Dansyl)STPPSREAYSRPYSVDSDSDTNAKHSSHNRRLRTRSRPNG) [ZElan018, dansylated full length PAX2] | > 50 | – | – | – | – | – | – | – | –
